# Measurements reported in PMC8850458, “The AUTOTAC chemical biology platform for targeted protein degradation via the autophagy-lysosome system” (Nature Communications, 2022).
# Several values for one entry are separate records, joined by “and”; a condition that tells them apart may be missing. Equal values may be shown once.
# Legend:
# [1] = biological target: T1, mutant desminL385P (Homo sapiens, UniProt P17661, L385P); experiment: WB degradation of mutant desmin in HeLa cells; type: cell-based; settings: exogenously expressed
# T1 construct: expressed in transfected cells; host or cells: HeLa, transient
# Protocol: (§1) Adherent cells were washed with phosphate-buffered saline (PBS) and cell pellets were lysed in SDS-based sample buffer (277.8 mM Tris-HCI, pH 6.8, 4.4% LDS, 44.4% (v/v) glycerol) containing beta-mercaptoethanol. Alternatively, cell pellets or protein supernatants were lysed in 5X Laemmli sample buffer. Whole-cell lysates were separated using SDS-PAGE, and transferred onto polyvinyllidene difluoride membranes at 100 V for 2 h at 4 °C. The membrane was incubated with a blocking solution consisting 4% skim milk in PBS solution for 30 min at room temperature and incubated with primary antibodies overnight, followed by incubation with host-specific HRP-conjugated secondary antibodies (1:10000 dilution). For signal detection, the membrane was developed with a mixture of ECL solution (Thermo Fisher Scientific) using X-ray films. Densitometry of developed bands was measured and analyzed with ImageJ (NIH, Bethesda).
# (§2) Supplementary Fig. 5. AUTOTACs selectively target pathological aggregation-prone proteins for autophagic degradation. (a) WB in HEK293T cells treated with PBA-1105 (1 μM) and MG132 (1 μM, 24 h) at the indicated time points. (b) ICC of HeLa cells treated with the indicated compounds (1 μM, 24 h). Scale bar, 10 μm. (c) WB in HEK293T cells treated with PBA-1105 (500 nM, 24 h) and MG132 (1 μM, 24 h) under siRNA-mediated knockdown of p62 or ATG7 (20 nM, 48 h). (d) ICC in HeLa cells transiently expressing WIPI2-GFP and treated with Anle138b-F105 (1 μM, 24 h). Scale bar, 10 μm. (e) ICC in HeLa cells treated with […]
# (§3) nM, 24 h). (g, h) WB in HeLa cells transiently expressing wild type or mutant (L385P) desmin-flag with LacZ-myc and treated with PBA-1105, PBA-1105b or Anle138b-F105 at the […]
# [2] = biological target: T2, wild-type desmin (Homo sapiens, UniProt P17661); experiment: WB degradation of wild-type desmin in HeLa cells; type: cell-based; settings: exogenously expressed
# T2 construct: expressed in transfected cells; host or cells: HeLa, transient
# Protocol: as §1, §2, §3
# [3] = biological target: tauP301L (Homo sapiens, UniProt P10636, P618L); experiment: WB degradation of tauP301L in SH-SY5Y-tauP301L cells; type: cell-based; settings: SH-SY5Y-tauP301L cells
# Protocol: as §1
# [4] = system: Ub^+ and p62^+ puncta; experiment: ICC of Ub (FK2) and p62 puncta in HeLa cells; type: cell-based; settings: 1 μM 24 h, autophagy inhibition (HCQ)
# Protocol: Fig. 4 Targeted autophagic delivery and degradation of misfolded protein cargoes using AUTOTACs with aggregate-binding warhead. a A model illustrating the mode of action of aggregate-targeting AUTOTAC. b Chemical structures of PBA-1105, PBA-1106, Anle138b-F105 and PBA-1105b. c In vitro p62 oligomerization assay in HEK293T cells incubated with the indicated compounds in (b). d WB in HEK293T cells treated with MG132 (1 μM, 24 h), HCQ (10 μM, 24 h), PBA-1105, YTK-1105, and PBA (1 μM, 24 h). e Identical to (d), but with Anle-F105. f ICC of HeLa cells treated with HCQ (10 μM, 24 h), MG132 (2 μM, 18 h) or both in the presence of PBA-1106, YOK-1106 or PBA (1 μM, 24 h). Scale bar, 10 μm. g Quantification of (f) (n = 3, 50 cells). h ICC of HeLa cells treated with Anle138b-F105 (1 μM, 24 h). Scale bar, 10 μm. i Quantification of (h) (n = 3, 50 cells). When indicated, n = 3 biologically independent experiments each counting 50 cells. Data are presented as mean values ± SD where relevant. P-values (from a two-sided unpaired t test): ***P < 7.66E−05. Source data are provided with this paper.
# (§4) Cells were cultured on coverslips coated with poly-L-lysine (Sigma) to observe cellular localization of proteins. Using 4% paraformaldehyde in PBS (pH 7.4), the cells were fixed for 15 min at room temperature and washed three times for 5 min with PBS. After fixing, the cells were permeabilized with 0.5% Triton X-100 in PBS solution for 15 min and washed three times with PBS for 5 min. The cells were blocked containing 2% BSA in PBS solution for 1 h at room temperature. Subsequently, the cells were incubated with primary antibody diluted in 2% BSA/PBS solution overnight at 4 °C, followed by washing the cells three times for 10 min with PBS and incubated with Alexa Fluor-conjugated secondary antibody diluted in 2% BSA/PBS for 30 min at room temperature. Using a DAPI-containing mounting medium (Vector Laboratories), the coverslips were mounted on glass slides. Confocal images were taken by laser scanning confocal microscope 510 Meta (Zeiss) and analyzed by Zeiss LSM Image Browser (ver. 4.2.0.121). […] Quantification results are shown as mean ± S.D. or S.E.M. of three independent experiments
# [5] = biological target: T3, p62 (Homo sapiens, UniProt Q13501); experiment: In vitro p62 oligomerization assay; type: biochemical; settings: HEK293T lysate
# T3 construct: expressed in transfected cells; host or cells: HEK293T, transient; whole lysate used
# Protocol: HEK293T cells were transiently transfected with a plasmid encoding p62-myc/his fusion proteins. Cells were resuspended in lysis buffer [50 mM HEPES (pH 7.4), 0.15 M KCl, 0.1% Nonidet P-40), 10% glycerol, containing a mixture of protease inhibitors and phosphatase inhibitor (Abcam)]. To lyse the cells, 10 cycles of freezing and thawing was done, followed by centrifugation at 13,000 × g for 20 min at 4 °C. Using a BCA assay, the protein concentration of the supernatant was measured. A total of 1 μg of protein was incubated with 1 mM of p62-ZZ ligands in the presence of 100 μM bestatin (Enzo) at room temperature for 2 h. After incubation, each sample was mixed with non-reducing 4X LDS sample buffer, heated at 95 °C for 10 min, and resolved using 4–20% gradient SDS-PAGE (Bio-Rad). To monitor the conversion of p62 monomers into oligomers or aggregates, IB assay was performed using anti-myc antibody.
# [6] = biological target: T4, methionine aminopeptidase 2 (MetAP2) (Homo sapiens, UniProt P50579); experiment: Western blot degradation of MetAP2; type: cell-based; settings: 293T, 24 h
# T4 construct: Targeted autophagic degradation of endogenous oncoproteins by AUTOTAC; endogenous in cells; host or cells: HEK293 / HEK293T, U87-MG
# Protocol: as §1
# [7] = system: p62 and LC3 punctate structures; experiment: ICC of p62 and LC3 puncta formation and co-localization in HeLa cells; type: cell-based; settings: 2.5 μM, 24 h
# Protocol: as §4
# [8] = system: U87-MG glioblastoma cells; experiment: Wound healing assay in U87-MG cells; type: cell-based; set-up: wound area, single experiment / wound area, Average: unit not given here; settings: Fig. S4j
# Protocol: To analyze cell migration in two dimensions, U-87 MG or ACHN cells were plated to a monolayer. Cells were scratched with a sterile 10 μl pipette tip and the debris was removed using medium. Cells were treated with compounds and incubated for different time to monitor cell behavior. Photographs were obtained using a microscope at different time point.
# [9] = biological target: T3, p62; experiment: In vitro pulldown assay with biotinylated p62 ligands; type: binding; settings: biotinylated ligand, HEK293T extracts
# Protocol: A set of synthetic 12-mer peptides corresponding to the N-terminal sequences of the V-BiP (V[19]-[…]-biotin) and V-RGS4 (V^2-[…]-biotin) was C-terminally biotin-conjugated. Alternatively, biotinylated versions of YOK-1304, YT-8-8, YTK-1105, YOK-2204, and PBA were synthesized. To cross-link the above peptides with resin beads, biotin-conjugated peptides, and small molecule were mixed with high-capacity streptavidin agarose resin (Thermo Fisher Scientific) at a ratio of 0.5 mg of peptide per 1 mL of settled resin and incubated on a rotator at 4 °C overnight. After washing five times with PBS, the peptide/small molecule-bead conjugates were diluted with PBS at a 1:1 ratio. To prepare protein extracts, cells were collected by centrifugation and lysed by freezing and thawing at least 10 times in hypotonic buffer [10 mM KCl, 1.5 mM MgCl2, and 10 mM HEPES (pH 7.9)] with a protease inhibitor mix (Sigma). After centrifugation at 15,000 rpm 4 °C for 15 min, proteins were quantified using a BCA protein assay kit (Thermo Fisher Scientific). Total protein (200 μg) diluted in 300 μL of binding buffer [0.05% Tween-20, 10% glycerol, 0.2 M KCl, and 20 mM HEPES (pH 7.9)] were mixed with 50 μL of peptide/small molecule-bead resin and incubated at 4 °C for 2 h on a rotator. The protein-bound beads were collected by centrifugation at 2400 × g for 3 min and washed five times with binding buffer. The beads were resuspended in 25 μL of SDS sample buffer, heated at 95 °C for 5 min, and subjected to SDS/PAGE and immunoblotting.
# [10] = system: autophagic turnover of p62 and LC3; experiment: Autophagic flux assay in HeLa cells with or without HCQ; type: cell-based; settings: 2.5 μM, 24 h, with or without HCQ 10 µM 24 h
# Protocol: Fig. 1 Nt-Arg-mimicking p62-ZZ ligands activate p62-dependent selective macroautophagy. a A model illustrating the mode of action of autophagy-targeting ligands. b Chemical structures of autophagy-targeting ligands. c In vitro pulldown assay in HEK293T cells of the 12-mer V-BiP peptide or autophagy-targeting ligands. d In vitro p62 oligomerization assay in HEK293T cells incubated with the p62-ZZ ligands in (b). e ICC of HeLa cells treated with p62-ZZ ligands in (b) (2.5 μM, 24 h). Scale bar, 10 μm. f, g Quantification of (e) for puncta formation and co-localization, respectively (n = 3 biologically independent experiments each counting 50 cells). h A schematic/formulae for autophagy flux index. i Autophagic flux assay in HeLa cells treated with YOK-1304 or YTK-105 (2.5 μM, 24 h) in the presence or absence of HCQ (10 µM, 24 h). Data are presented as mean values ± SD where relevant. P-values (from a two-sided unpaired t test): ***P < 0.000956 (for p62 punctate formation), ***P < 0.000539 (for LC3 punctate formation), ***P < 0.000925 (for p62-LC3 co-localization). Source data are provided with this paper. TEXT PRINTED IN THE PICTURE: (i) YOK 1304: Normalized p62 A.F. index: 2.8; Normalized LC3 II/I A.F. index: 4.2 | (i) YTK 105: Normalized p62 A.F. index: 4.6; Normalized LC3 II/I A.F. index: 11.2
# as §1
# [11] = system: p62-positive and WIPI2-positive punctate structures; experiment: ICC of WIPI2-p62 co-localization in HeLa cells; type: cell-based
# Protocol: as §4
# Supplementary Fig. 2. Characterization of p62-ZZ ligands (a, c, e) 3-D modeling of p62 […]
# μM, 6 h). (m) Quantification of l for co-localization (n=3, 50 cells). Scale bar, 10 µm. (n) […]
# [12] = HeLa expressing WIPI2-GFP, 2.5 μM, 6 h
# [13] = HeLa, endogenous WIPI2, 2.5 μM, 24 h
# tauP301L, sequence (P10636 1-441 isoform P10636-8 P301L): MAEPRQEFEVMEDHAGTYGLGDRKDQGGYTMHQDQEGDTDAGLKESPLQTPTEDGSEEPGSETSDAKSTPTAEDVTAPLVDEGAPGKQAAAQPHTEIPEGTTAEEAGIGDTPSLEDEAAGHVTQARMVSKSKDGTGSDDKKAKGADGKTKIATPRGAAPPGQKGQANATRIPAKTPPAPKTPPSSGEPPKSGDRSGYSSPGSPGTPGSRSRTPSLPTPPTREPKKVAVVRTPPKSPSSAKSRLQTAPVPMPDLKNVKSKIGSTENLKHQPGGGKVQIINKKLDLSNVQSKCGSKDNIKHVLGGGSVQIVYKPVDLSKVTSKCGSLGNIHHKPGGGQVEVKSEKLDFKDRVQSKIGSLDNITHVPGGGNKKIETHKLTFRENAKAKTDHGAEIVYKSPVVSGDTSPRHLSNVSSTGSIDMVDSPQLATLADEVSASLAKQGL
# T3 sequence (Q13501 whole entry): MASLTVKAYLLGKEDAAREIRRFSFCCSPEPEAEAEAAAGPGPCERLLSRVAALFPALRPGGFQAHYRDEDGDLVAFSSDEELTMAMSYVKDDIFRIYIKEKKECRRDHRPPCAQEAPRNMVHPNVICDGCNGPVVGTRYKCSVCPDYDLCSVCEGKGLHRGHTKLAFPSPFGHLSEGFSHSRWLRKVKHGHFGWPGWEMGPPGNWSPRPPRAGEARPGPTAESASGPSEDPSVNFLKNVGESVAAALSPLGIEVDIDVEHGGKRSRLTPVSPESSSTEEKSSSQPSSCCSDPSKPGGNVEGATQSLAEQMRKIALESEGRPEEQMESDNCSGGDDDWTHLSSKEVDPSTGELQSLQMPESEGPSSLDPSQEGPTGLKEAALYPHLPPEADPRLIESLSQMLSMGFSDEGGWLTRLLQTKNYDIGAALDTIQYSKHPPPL
# T4 sequence (P50579 whole entry): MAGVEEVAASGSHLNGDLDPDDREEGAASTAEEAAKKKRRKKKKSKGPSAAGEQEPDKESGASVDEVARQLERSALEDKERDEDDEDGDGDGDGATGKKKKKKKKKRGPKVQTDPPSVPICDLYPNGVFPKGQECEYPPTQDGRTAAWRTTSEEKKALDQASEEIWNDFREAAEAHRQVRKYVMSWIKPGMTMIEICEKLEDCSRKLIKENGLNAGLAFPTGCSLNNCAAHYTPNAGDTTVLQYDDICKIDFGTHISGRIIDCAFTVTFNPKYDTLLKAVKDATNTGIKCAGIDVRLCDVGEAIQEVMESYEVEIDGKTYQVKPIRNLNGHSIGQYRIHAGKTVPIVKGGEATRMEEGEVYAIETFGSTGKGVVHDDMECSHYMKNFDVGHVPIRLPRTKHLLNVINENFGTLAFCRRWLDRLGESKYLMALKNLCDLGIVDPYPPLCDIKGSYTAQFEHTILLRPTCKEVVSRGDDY
# T2 sequence (P17661 whole entry): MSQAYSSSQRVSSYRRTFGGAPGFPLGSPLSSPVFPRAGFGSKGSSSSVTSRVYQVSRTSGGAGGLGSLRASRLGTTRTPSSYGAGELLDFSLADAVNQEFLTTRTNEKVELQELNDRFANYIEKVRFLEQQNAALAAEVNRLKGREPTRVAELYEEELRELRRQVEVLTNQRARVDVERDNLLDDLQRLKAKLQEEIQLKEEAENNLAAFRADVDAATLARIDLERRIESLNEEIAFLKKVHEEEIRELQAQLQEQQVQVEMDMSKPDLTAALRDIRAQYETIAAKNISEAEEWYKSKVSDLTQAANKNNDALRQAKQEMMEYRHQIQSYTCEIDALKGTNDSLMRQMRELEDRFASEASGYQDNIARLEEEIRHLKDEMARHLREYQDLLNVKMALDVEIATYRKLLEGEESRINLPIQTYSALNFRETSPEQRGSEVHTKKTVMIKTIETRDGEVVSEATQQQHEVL
# T1 sequence (P17661 whole entry L385P): as the sequence (P17661 whole entry) above, with L385P counted along it
smiles,measurement,setting,value
O=C(CCCc1ccccc1)NCCOCCOCCOCCOCCOCCOCCOCCNCc1ccc(OCc2ccccc2)c(OCc2ccccc2)c1 [PBA-1105b],degradation of mutant desminL385P,[1],induced the degradation
same,degradation of wild-type desmin,[2],not wild-type desmin
same,degradation of tauP301L,[3],at a similar efficiency as the original PBA-1105
O=C(CCCc1ccccc1)NCCOCCOCCOCCNC[C@@H](O)COc1ccc(OCc2ccccc2)c(OCc2ccccc2)c1 [PBA-1106],p62 puncta structures (per cell),[4],14 ± 4.2
same,DC50,[3],1 to 10 nM
same,"Dmax,24 hr of tauP301L degradation",[3],100 nM
same,p62 self-oligomerization,[5],triggered its self-oligomerization
OCCNCc1cccc(OCc2ccccc2)c1 [YTK-105],"MetAP2 normalized to control, AVG %",[6]; 2.5uM,101.594%
same,"MetAP2 normalized to control, AVG %",[6]; 10uM,142.103%
same,"LC3 puncta formation, AVG of cells of 50",[7],42.3333
same,"LC3 puncta formation, percentage AVG",[7],84.6667%
same,"p62-LC3 colocalization, AVG of cells of 50",[7],45
same,"p62-LC3 colocalization, percentage AVG",[7],90%
same,"p62 puncta formation, AVG of cells of 50",[7],43.6667
same,"p62 puncta formation, percentage AVG",[7],87.3333%
same,"LC3 puncta formation, cells of 50 cells counted",[7]; single experiments,38 and 42 and 47
same,"p62-LC3 colocalization, cells of 50 cells counted",[7]; single experiments,46 and 43
same,"p62 puncta formation, cells of 50 cells counted",[7]; single experiments,43 and 41 and 47
same,"wound area, single experiment",[8]; 0h,1132236 and 1199923 and 1182736
same,"wound area, Average %",[8]; 0h (reference = 100),100%
same,"wound area, Average","[8]; 0h, con 1278325",1171632
same,"wound area, single experiment",[8]; 4h,859025 and 791115 and 860952
same,"wound area, Average","[8]; 4h, con 815372",837031
same,"wound area, Average %","[8]; 4h, relative to 0h, con 63.7844",71.4415%
same,"wound area, single experiment",[8]; 12h,450234 and 520420 and 504520
same,"wound area, Average","[8]; 12h, con 627015",491725
same,"wound area, Average %","[8]; 12h, relative to 0h, con 49.0497",41.9692%
same,"wound area, single experiment",[8]; 24h,288632 and 435340 and 335340
same,"wound area, Average","[8]; 24h, con 144265",353104
same,"wound area, Average %","[8]; 24h, relative to 0h, con 11.2855",30.1378%
same,binding of p62 in pulldown,[9],bound
same,Normalized LC3 II/I A.F. index,[10],11.2
same,Normalized p62 A.F. index,[10],4.6
same,"WIPI2-GFP-p62 colocalization, AVG of cells of 50",[11]; [12],25
same,"WIPI2-GFP-p62 colocalization, percentage AVG",[11]; [12],50%
same,"WIPI2-GFP-p62 colocalization, cells of 50 cells counted","[11]; HeLa expressing WIPI2-GFP, 2.5 μM, 6 h, single experiments",31 and 18 and 26
same,"WIPI2-p62 colocalization, AVG of cells of 50",[11]; [13],40.6667
same,"WIPI2-p62 colocalization, percentage AVG",[11]; [13],81.3333%
same,"WIPI2-p62 colocalization, cells of 50 cells counted","[11]; HeLa, endogenous WIPI2, 2.5 μM, 24 h, single experiments",48 and 33 and 41
